Experimental data reported in US10285966B2, “10-hydroxy-cis-12-octadecenoic acid alkyl ester and use thereof” (NITTO PHARMACEUTICAL INDUSTRIES, LTD., priority 2015, dated 2019).

Assay: State (liquid or solid) at ambient temperature by visual observation
Assay type: physicochemical
Conditions: for State at standard temperature: Table 1; for liquid or solid at ambient temperature: ambient temperature (about 15-25° C.), visual observation
Experimental: The compounds (1)-(3) of the present invention are desirably liquid at ambient temperature. In the present specification, the ambient temperature refers to the ambient temperature (15° C.-25° C.) defined in the Japanese Pharmacopoeia, 16th edition, General Rules, the Japanese Pharmacopoeia, 17th edition, General Rules. In addition, “about” here means ±1° C.
Whether the compounds of Examples 1 and 2 and HYA of Comparative Example are liquid or solid at ambient temperature (about 15-25° C.) was confirmed by visual observation.

Row | State at standard temperature | liquid or solid at ambient temperature | Compound
1 | liquid | liquid | CCCCC/C=C\CC(O)CCCCCCCCC(=O)OCC (stereo not drawn) [Example 1, ethyl 10-hydroxy-cis-12-octadecenoate]
2 | – | liquid | CCCCC/C=C\CC(O)CCCCCCCCC(=O)OCCC (stereo not drawn) [Example 2, propyl 10-hydroxy-cis-12-octadecenoate]
3 | solid | solid | CCCCC/C=C\CC(O)CCCCCCCCC(=O)O (stereo not drawn) [HYA, 10-hydroxy-cis-12-octadecenoic acid]
